SMILES strings stand for the structures.

The target of the test is T1, CHEK1 (CHK1) (Homo sapiens, UniProt O14757).
T1 construct: purchased Thermo Fisher Scientific (Life Technologies) SelectScreen
The test is described as follows: SelectScreen Z'LYTE. It is filed as biochemical. The method in brief: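 SelectScreen broad panel; activity (Z'LYTE, Adapta) plus binding formats. ATP: Km app for CSF1R Z'LYTE; 10 for CAMK1 Adapta. Readout = % per kinase.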

T1 sequence (O14757 whole entry): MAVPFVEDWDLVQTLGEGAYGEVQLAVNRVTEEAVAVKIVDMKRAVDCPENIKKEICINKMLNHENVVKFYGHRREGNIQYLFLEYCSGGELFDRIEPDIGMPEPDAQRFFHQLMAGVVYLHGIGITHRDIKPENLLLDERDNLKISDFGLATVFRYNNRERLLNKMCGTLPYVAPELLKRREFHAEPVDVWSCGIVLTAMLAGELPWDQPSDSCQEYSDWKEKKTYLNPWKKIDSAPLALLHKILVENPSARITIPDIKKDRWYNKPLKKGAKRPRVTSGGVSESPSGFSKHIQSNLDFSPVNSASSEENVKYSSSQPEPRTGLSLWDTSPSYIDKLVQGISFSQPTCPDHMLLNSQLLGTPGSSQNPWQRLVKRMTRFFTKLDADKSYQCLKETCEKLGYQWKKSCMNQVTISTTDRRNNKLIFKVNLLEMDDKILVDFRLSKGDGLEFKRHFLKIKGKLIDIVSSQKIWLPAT

In the case of `CN(C(=O)CN1CCOCC1)c1ccc2sc3c(-c4cccc5c(=O)cc(N6CC7CCC(C6)O7)oc45)cccc3c2c1` [NU5455], testing at 1 µM gave an inhibition of 9.3%.

Source of the values: publication PMC6934184, “Selective DNA-PKcs inhibition extends the therapeutic index of localized radiotherapy and chemotherapy” (The Journal of Clinical Investigation, 2019).
